The results in this text go back to patent US20110039825A1, “LIGANDS OF ALPHA-ADRENOCEPTORS, DOPAMINE, HISTAMINE, IMIDAZOLINE AND SEROTONIN RECEPTORS AND THEIR USE” (Alla Chem, LLC, priority 2007, published 2011).

pIC50, pKi: −log10 of the molar value.

The subject of one experiment is mice. Briefly: Mice Training in Morris Water Maze (Scopolamine). In kind it is in vivo. As to conditions: unitary introduction of active ingredient. The procedure: Mice Training in Morris Water Maze. A round pool which was filled with water at 20-22° C. was used. A round ceramic platform of 14 cm height was placed in the pool. Animals's behavior was registered with automated computer videosystem in combination with software package of movement analysis Any-maze (Stoelting Co., US). Before testing mice suitable for training were selected. That was done by placing the platform 1 cm above the water level and putting an animal on the platform for 20 seconds. Then the mouse was sunk into the water on the opposite side of the pool, allowed to find the platform and climbed it within 60 seconds, where it was left for additional 20 seconds. After that the mouse was repeatedly immersed into water on the opposite side of the pool and allowed to look for platform. If it failed in finding the platform within 60 seconds the experimentator helped it to find the platform and climb it. If the mice could not find the platform itself in two consecutive attempts it was excluded from experiment.
During the next two days the platform was placed 0.5 centimeter lower the water level. Every day the mice were given four attempts for finding the platform within 60 seconds. The time interval between the attempts was 20 seconds, during which the mice stayed on the platform. Every day before the first attempt mouse was placed on the platform for 20 seconds. The time needed for finding and climbing the platform was registered. The animals were sunk in water in 3 different places on the side of the pool opposite to platform. On each day of two-day testing 35-40 minutes before the beginning of training the mice were injected intraintestinally with physiological solution, Scopolamine or Scopolamine in combination with investigated compound. At least 8 animals were used in each group.
On the third day the platform was removed and each animal was placed one time in the pool for a period of 60 seconds. The time each mouse spent in the area where the platform had been located during the previous days was registered. This time interval was regarded as a measure of effectiveness of training fulfilled during the previous two days. The testing was carried out during the day time in isolated laboratory using “white noise” at level of about 70 decibel above the human hearing threshold.

The next experiment concerns male mice of BALB/c line. As to the kind of experiment: Passive Avoidance of mice in the Shuttle Chamber, memory disturbed by Scopolamine. It is filed as in vivo. As to conditions: Scopolamine 0.3 mg/kg. The procedure:
A shuttle chamber (Ugo Basile, Italy) consisted of two sections was used. […] The sections were connected through a hole which could be overlapped by a vertical door. The floor was made of transverse metal bars on which DC current impulses could be fed. Experiments were carried out in aged male mice of BALB/c line weighing 20-24 grams.
Each group consisted of at least 8 animals. Animal was placed in light section, and latent period of the first entry into dark chamber was registered. Then the vertical door was closed and the animal was punished by 0.6 mA DC current for 3 seconds. After that it was taken back to its homecage. In 22-24 hours the same animal was placed again in light section of the shuttle chamber and latent period of its first entry into dark section, the total time of its stay in light section, and the number of entries into dark section, were registered. Each monitoring lasted for 5 minutes.
Testing was carried out during the day time in isolated laboratory using white noise at level of about 70 decibel above human hearing threshold.
Scopolamine causes the disturbance of training (memory loss) that results in […].

The next experiment addresses T1, human D1 receptor (Homo sapiens, UniProt P21728).
T1 construct: expressed in transfected cells; host or cells: CHO
Briefly: radioligand binding to dopamine receptor D1 ([3H] SCH-23390). The text has this: For this purpose sDNA of human D1 receptor is expressed in CHO cells, as it was described in [Dearry A, Gingrich J A, Falardeau P, Fremeau R T Jr, Bates M D and Caron M G. Molecular cloning and expression of the gene for a human D1 dopamine receptor. Nature. […] Nature.

The next experiment concerns imidazoline receptor I2. Briefly: radioligand binding to imidazoline receptor I2 ([3H] Idazoxan). Also noted: species or system rat. As to conditions: 10 μM ligand. How it is done: Determination of investigated compounds' binding to imidazoline I2 receptor is carried out according to the method described in [Brown C M, MacKinnon A C, McGrath J C, Spedding M and Kilpatrick A T, a2-Adrenoceptor subtypes and imidazoline-like binding in the rat brain. Br J. Pharmacol. 99:803-809, 1990]. […] Idazoxan is used as positive control.

In the next experiment the target is T2, human α2A receptor (Homo sapiens, UniProt P08913).
T2 construct: expressed in transfected cells; host or cells: Sf9
T2 sequence (P08913 1-465): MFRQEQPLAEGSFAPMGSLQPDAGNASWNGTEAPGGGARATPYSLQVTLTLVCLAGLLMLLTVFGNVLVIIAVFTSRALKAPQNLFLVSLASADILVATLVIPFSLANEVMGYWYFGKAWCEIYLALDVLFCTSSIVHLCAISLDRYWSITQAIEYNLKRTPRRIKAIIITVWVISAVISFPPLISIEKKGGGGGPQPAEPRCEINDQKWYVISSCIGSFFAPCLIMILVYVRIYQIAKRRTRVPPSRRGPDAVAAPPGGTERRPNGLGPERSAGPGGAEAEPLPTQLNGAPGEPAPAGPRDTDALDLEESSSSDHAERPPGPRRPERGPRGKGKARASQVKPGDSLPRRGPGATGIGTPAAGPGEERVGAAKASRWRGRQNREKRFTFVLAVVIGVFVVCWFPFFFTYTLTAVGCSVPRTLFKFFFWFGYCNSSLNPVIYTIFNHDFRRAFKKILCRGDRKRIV
Briefly: radioligand binding to adrenergic receptor α2A ([3H] MK-912). The source says:
J Pharmacol ExpTher. […] Yohimbine is used as positive control.

The target in another experiment is T3, human D2S receptor (Homo sapiens, UniProt P14416).
T3 construct: expressed in transfected cells; host or cells: CHO
T3 sequence (P14416 1-414 isoform P14416-2): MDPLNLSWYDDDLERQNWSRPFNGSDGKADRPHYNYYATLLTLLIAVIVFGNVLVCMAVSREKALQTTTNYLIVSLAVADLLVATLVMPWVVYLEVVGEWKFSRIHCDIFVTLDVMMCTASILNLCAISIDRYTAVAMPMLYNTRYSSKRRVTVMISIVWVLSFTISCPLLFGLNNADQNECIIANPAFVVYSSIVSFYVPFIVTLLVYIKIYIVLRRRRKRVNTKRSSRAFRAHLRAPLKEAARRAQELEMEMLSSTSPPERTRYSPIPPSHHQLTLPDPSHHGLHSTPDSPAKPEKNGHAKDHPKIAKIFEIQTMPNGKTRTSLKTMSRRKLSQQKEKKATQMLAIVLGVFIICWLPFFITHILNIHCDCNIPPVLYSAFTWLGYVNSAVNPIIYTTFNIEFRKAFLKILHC
Briefly: radioligand binding to dopamine receptor D2S ([3H] Spiperone). The source says: 7-C. […] For this purpose sDNA of human D2S receptor is expressed in CHO cells, as described in [Hayes G, Biden T J, Selbie L A and Shine J, Structural subtypes of the dopamine D2 receptor are functionally distinct. […] Mol. Endocrinol. […] Mol. Endocrinol. […] Spiperone is used as positive control.

The target of another experiment is T4, adrenergic receptor α1A (Rattus norvegicus, UniProt P43140).
T4 construct: membrane species from rat submaxillary glands (rat of Wistar breed) are prepared; from tissue; host or cells: rat (Wistar) submaxillary gland membranes
T4 sequence (P43140 1-466): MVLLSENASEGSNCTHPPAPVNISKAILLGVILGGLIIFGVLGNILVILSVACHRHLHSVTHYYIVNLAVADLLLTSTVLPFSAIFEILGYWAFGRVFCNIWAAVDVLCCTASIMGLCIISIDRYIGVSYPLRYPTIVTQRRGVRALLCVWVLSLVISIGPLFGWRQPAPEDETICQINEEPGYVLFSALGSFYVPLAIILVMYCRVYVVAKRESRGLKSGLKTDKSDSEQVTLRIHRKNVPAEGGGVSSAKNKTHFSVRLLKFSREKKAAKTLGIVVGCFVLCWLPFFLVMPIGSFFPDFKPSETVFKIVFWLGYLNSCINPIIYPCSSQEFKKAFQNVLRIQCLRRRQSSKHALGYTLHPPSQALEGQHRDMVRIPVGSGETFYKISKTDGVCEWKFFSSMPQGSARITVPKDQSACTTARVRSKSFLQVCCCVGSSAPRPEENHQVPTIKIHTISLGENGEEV
Briefly: radioligand binding to adrenergic receptor α1A ([3H] Prazosin). The procedure: Determination of investigated compounds' binding to α1A receptor was carried out according to the method described in [Michel A D, Loury D N and Whiting R l. Identification of a single α1A-adrenoceptor corresponding to the α1A-subtype in rat submaxillary gland. Br J. Pharmacol. 98:883-889, 1989]. […] Prazosin is used as positive control.

Another experiment has as its target T5, adrenergic receptor α1B (Rattus norvegicus, UniProt P15823).
T5 construct: membrane species from rat liver (rat of Wistar breed) are prepared; from tissue; host or cells: rat (Wistar) liver membranes
T5 sequence (P15823 1-515): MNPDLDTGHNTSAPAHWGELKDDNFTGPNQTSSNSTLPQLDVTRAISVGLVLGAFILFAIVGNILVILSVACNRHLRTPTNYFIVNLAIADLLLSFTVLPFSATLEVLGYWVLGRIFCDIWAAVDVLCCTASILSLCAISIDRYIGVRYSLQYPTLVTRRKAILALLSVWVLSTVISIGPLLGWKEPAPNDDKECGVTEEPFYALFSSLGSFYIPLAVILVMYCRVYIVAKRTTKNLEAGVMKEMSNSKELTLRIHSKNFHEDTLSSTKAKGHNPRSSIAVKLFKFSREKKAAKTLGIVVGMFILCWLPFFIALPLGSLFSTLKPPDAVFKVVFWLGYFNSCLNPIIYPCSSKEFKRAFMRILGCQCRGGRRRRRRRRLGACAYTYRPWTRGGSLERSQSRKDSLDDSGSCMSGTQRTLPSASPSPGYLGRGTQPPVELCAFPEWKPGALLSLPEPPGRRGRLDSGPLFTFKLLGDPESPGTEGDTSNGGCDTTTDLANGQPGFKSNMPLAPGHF
As to the kind of experiment: radioligand binding to adrenergic receptor α1B ([3H] Prazosin). The text has this: Species heterogeneity of hepatic α1A-, α1B-, and α1C-subtypes. Biochem Biophys Res Commun. 186:760-7676 1992]. […] Prazosin is used as positive control.

The target in another experiment is T6, human α1D receptor (Homo sapiens, UniProt P25100).
T6 construct: expressed in transfected cells; host or cells: HEK-293
T6 sequence (P25100 1-572): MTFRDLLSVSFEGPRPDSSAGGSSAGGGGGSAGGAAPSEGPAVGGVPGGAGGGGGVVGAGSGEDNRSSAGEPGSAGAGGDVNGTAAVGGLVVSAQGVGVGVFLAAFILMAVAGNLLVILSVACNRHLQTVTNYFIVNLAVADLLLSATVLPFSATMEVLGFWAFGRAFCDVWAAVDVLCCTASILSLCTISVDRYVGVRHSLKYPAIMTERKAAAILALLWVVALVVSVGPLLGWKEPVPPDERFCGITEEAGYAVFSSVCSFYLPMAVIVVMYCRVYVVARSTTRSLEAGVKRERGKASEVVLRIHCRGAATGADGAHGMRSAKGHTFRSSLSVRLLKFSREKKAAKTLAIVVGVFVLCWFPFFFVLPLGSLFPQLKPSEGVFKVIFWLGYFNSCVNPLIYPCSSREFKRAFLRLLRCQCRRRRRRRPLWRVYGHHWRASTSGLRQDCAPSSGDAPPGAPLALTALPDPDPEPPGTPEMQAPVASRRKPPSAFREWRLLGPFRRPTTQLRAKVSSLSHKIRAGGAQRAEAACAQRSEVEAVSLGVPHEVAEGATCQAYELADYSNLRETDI
As to the kind of experiment: radioligand binding to adrenergic receptor α1D ([3H] Prazosin). The text has this: 6-C. […] For this purpose sDNA of human α1D receptor is expressed in HEK-293 cells, as it was described in [T L Theroux, T A Esbenshade, R D Peavy and K P Minneman. Coupling efficiencies of human alpha 1-adrenergic receptor subtypes: titration of receptor density and responsiveness with inducible and repressible expression vectors. Mol. Pharmacol.; 50: 1376-1387, 1996]. […] Prazosin is used as positive control.

The target of another experiment is T7, human H1 receptor (Homo sapiens, UniProt P35367).
T7 construct: expressed in transfected cells; host or cells: CHO-K1
T7 sequence (P35367 whole entry): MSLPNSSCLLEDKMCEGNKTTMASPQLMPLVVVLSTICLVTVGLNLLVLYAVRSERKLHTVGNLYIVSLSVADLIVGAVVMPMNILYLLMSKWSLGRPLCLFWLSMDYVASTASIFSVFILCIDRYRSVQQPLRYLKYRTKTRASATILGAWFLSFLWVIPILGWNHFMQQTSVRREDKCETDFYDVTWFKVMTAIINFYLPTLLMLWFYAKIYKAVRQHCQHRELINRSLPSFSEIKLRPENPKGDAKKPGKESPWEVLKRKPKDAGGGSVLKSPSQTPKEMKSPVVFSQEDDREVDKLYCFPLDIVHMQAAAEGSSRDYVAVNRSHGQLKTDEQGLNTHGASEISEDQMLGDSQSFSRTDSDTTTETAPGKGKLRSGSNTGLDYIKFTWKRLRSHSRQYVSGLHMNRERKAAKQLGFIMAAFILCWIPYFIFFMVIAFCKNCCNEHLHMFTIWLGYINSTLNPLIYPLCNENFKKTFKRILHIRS
Briefly: radioligand binding to histamine receptor H1 ([3H] Pyrilamine). The text has this:
Biochem Biophys Res Comm. 197(3): 1601-1608, 1993]. […] Biochem Biophys Res Comm. 197(3): 1601-1608, 1993].
Pyrilamine is used as positive control.

T1 sequence (P21728 whole entry): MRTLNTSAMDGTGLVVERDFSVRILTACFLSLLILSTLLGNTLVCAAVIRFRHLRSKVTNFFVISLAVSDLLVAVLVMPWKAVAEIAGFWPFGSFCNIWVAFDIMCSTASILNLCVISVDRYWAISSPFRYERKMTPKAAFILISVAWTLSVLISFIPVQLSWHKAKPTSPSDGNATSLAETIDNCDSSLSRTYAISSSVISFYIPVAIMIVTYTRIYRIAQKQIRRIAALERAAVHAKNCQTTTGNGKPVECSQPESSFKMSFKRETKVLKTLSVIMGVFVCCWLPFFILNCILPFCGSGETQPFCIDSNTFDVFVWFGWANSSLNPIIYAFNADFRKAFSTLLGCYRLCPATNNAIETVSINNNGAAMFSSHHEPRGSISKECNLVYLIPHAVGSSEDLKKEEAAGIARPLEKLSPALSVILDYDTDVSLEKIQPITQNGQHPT

Take `Cc1ccc2c(c1)c1c(n2CCc2ccccc2)CCN(C)C1` [1.1.2(1-2), 2,8-dimethyl-5-phenethyl-1,2,3,4-tetrahydro-1H-pyrido[4,3-b]indole]: the “memory disorders caused by Scopolamine in Morris water maze” value with mice is recorded as “decreasing memory disorders coused by Scopalomine”. Moreover, the “enhancement of memory disturbed by Scopolamine (passive avoidance)” value in the experiment on male mice of BALB/c line is “improve memory”.

In general, pIC50 refers to the IC50 on a negative log10 scale, so that one unit is a factor of ten. A lower pIC50 goes with a high IC50. In general, pKi refers to the negative decadic logarithm of the Ki, by convention in mol/L. In turn, `Cc1ccc2c(c1)c1c(n2CCc2ccc(C)nc2)CCN(C)C1.Cl.Cl` [1.1.2(4-2)•2HCl] had a pIC50 on human D1 receptor of 5.36. In addition, the “imidazoline I2 receptor % inhibition” value in the experiment on imidazoline receptor I2 was 98%. At human α2A receptor, the pIC50 was 6.54, the pKi was 6.97 and the “nH α2A” value stood at 0.828. On human D2S receptor, the pIC50 is 5.76 and the “nH D2S” value turned out to be 0.724. At adrenergic receptor α1A, the pIC50 is 6.87, the negative logarithm of the Ki (pKi) was 7.26 and the “nH α1A” value is reported as 1.12. Also, on adrenergic receptor α1B, the pIC50 was 7.06, the pKi was 7.32 and the “nH α1B” value stood at 1.54. For the same compound, at human α1D receptor, the pIC50 is 6.62 and the negative logarithm of the Ki (pKi) was 6.93. At human H1 receptor, the pIC50 was 8.37, the pKi was 8.80 and the “nH H1” value was found to be 1.01.

Regarding `Cc1ccc2c(c1)c1c(n2CCc2ccncc2)CCCN(C)C1.Cl.Cl` [1.2.2(5-3)•2HCl], the “memory disorders caused by Scopolamine in Morris water maze” value in the experiment with mice was “decreasing memory disorders coused by Scopalomine”.
